# Laboratory results as given in ChEMBL document CHEMBL4808180, “Identification of 2,2-Dimethylbutanoic Acid (HST5040), a Clinical Development Candidate for the Treatment of Propionic Acidemia and Methylmalonic Acidemia” (J Med Chem, 2021).
# Activity calls are given as the source filed them. The calls are words filed in the database; no cut-off is given here.
# What was measured:
# [1] = Reduction of propionyl carnitine in human hepatocytes derived from methylmalonic acidemia patient at 30 uM pretreated for 30 mins followed by 13C-isoleucine addition and measured after 1 hr by MS/MS analysis relative to control; format: functional, Hepatocyte; parameters: scale not given: the % may be the effect or the level left; details: time 90 min, 1.5 h
# [2] = Reduction of 2-Methylcitric acid in human hepatocytes derived from propionic acidemia patient pretreated for 30 mins followed by 13C-isoleucine addition and measured after 1 hr by MS/MS analysis; format: functional, cell-based; details: hepatocyte
# [3] = Reduction of 2-Methylcitric acid in human hepatocytes derived from methylmalonic acidemia patient pretreated for 30 mins followed by 13C-isoleucine addition and measured after 1 hr by MS/MS analysis; format: functional, cell-based; details: hepatocyte
# [4] = Reduction of acetyl-CoA in human hepatocytes derived from propionic acidemia patient pretreated for 30 mins followed by 13C-isoleucine addition and measured after 1 hr by MS/MS analysis; format: functional, cell-based; details: hepatocyte
# [5] = Reduction of acetyl-CoA in human hepatocytes derived from methylmalonic acidemia patient at 30 uM pretreated for 30 mins followed by 13C-isoleucine addition and measured after 1 hr by MS/MS analysis relative to control; format: functional, Hepatocyte; parameters: scale not given: the % may be the effect or the level left; details: time 90 min, 1.5 h
# [6] = Reduction of CoASH in human hepatocytes derived from methylmalonic acidemia at 30 uM pretreated for 30 mins followed by 13C-isoleucine addition and measured after 1 hr by MS/MS analysis; format: functional, Hepatocyte; parameters: scale not given: the % may be the effect or the level left; details: time 90 min, 1.5 h
# [7] = Drug metabolism in human hepatocytes derived from methylmalonic acidemia patient assessed as formation of 2,2-dimethylbutanoic acid-CoA pretreated for 30 mins followed by 13C-isoleucine addition and measured after 1 hr by MS/MS analysis relative to control; format: ADME, cell-based; details: Hepatocyte
# [8] = Drug metabolism in rat hepatocytes assessed as formation of 2,2-dimethylbutanoic acid-CoA incubated for 1 hrs by MS/MS analysis; format: ADME, cell-based; details: Hepatocyte
# [9] = Drug metabolism in cynomolgus monkey hepatocytes assessed as formation of 2,2-dimethylbutanoic acid-CoA incubated for 1 hrs by MS/MS analysis; format: ADME, cell-based; details: Macaca fascicularis, Hepatocyte
# [10] = Dissociation constant, pKa of the compound; format: physicochemical
# [11] = Ratio of drug level in erythrocyte to plasma in Sprague-Dawley rat; format: ADME; details: erythrocytes and plasma
# [12] = Cmax in CD1 mouse at 300 mg/kg, po; format: ADME, organism-based; parameters: route oral, dose 300 mg/kg; details: in vivo
# [13] = Tmax in CD1 mouse at 30 mg/kg, iv; format: ADME, organism-based; details: in vivo
# [14] = Tmax in CD1 mouse at 100 mg/kg, po; format: ADME, organism-based; details: in vivo
# [15] = Cmax in Sprague-Dawley rat at 200 mg/kg, po; format: ADME, organism-based; parameters: route oral, dose 200 mg/kg; details: in vivo
# [16] = Drug level in Gottingen minipig blood at 10 mg/kg, po using radiolabeled compound measured after 96 hrs by quantitative whole-body autoradiography; format: ADME, organism-based, Sus scrofa domesticus; details: pig, in vivo, BLD = below limit of detection
# [17] = Drug metabolism in Sprague-Dawley rat plasma assessed as HST5040-carnitine metabolite formation at 10 mg/kg administered as single dose by LC/MS analysis; format: ADME, organism-based; details: in vivo
# [18] = Drug metabolism in Sprague-Dawley rat urine assessed as HST5040-carnitine metabolite formation at 10 mg/kg administered as single dose by LC/MS analysis; format: ADME, organism-based; details: in vivo
# [19] = Drug metabolism in Sprague-Dawley rat urine assessed as HST5040-glycine metabolite formation at 10 mg/kg administered as single dose by LC/MS analysis; format: ADME, organism-based; details: in vivo
# [20] = Drug metabolism in Sprague-Dawley rat feces assessed as HST5040-carnitine metabolite formation at 10 mg/kg administered as single dose by LC/MS analysis; format: ADME, organism-based; details: in vivo
# [21] = Drug metabolism in human hepatocytes assessed as beta-oxidation by measuring phase1 metabolite formation at 50 uM measured after 4 hrs; format: ADME, cell-based, Hepatocyte
# [22] = Drug metabolism in minipig hepatocytes assessed as beta-oxidation by measuring phase1 metabolite formation at 50 uM measured after 4 hrs; format: ADME, cell-based, Sus scrofa domesticus, Hepatocyte; details: pig
# [23] = target: ATP-dependent translocase ABCB1 (Homo sapiens, UniProt P08183); test: Inhibition of human MDR1 assessed as reduction in NMQ transport at 24000 uM relative to control
# Sequence of ATP-dependent translocase ABCB1 (P08183 whole entry): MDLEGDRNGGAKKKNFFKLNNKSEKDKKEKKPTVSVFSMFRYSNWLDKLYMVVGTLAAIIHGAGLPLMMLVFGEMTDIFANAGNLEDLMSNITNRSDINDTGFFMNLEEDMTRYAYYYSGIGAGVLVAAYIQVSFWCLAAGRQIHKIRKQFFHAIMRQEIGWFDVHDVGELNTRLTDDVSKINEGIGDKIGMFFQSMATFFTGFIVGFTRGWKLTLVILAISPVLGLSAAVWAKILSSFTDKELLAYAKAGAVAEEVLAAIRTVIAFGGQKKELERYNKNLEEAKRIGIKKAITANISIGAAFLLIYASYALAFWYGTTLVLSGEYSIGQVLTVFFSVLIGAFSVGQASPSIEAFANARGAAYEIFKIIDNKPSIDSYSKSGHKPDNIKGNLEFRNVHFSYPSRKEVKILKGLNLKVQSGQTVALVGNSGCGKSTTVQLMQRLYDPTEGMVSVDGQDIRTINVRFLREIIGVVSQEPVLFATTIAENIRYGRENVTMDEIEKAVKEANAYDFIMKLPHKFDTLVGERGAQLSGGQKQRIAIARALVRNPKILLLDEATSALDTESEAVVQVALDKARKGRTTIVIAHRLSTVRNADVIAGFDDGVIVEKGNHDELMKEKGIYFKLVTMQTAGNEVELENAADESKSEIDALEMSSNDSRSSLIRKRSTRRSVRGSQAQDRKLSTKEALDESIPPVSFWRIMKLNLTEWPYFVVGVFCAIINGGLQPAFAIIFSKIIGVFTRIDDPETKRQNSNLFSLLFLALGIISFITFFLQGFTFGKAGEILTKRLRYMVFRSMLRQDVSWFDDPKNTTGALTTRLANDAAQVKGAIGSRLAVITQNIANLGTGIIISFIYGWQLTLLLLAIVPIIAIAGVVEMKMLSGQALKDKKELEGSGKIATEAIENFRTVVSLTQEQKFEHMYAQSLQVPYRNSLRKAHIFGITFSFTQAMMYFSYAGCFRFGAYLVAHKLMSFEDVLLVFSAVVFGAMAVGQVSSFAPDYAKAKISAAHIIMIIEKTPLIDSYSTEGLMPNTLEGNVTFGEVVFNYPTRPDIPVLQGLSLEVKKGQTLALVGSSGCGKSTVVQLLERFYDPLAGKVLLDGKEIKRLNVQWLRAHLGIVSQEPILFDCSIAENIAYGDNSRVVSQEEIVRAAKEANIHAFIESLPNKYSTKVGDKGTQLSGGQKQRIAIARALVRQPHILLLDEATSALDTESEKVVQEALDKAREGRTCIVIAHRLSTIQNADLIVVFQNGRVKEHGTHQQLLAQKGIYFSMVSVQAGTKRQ
# [24] = target: T1, Broad substrate specificity ATP-binding cassette transporter ABCG2 (Homo sapiens, UniProt Q9UNQ0); test: Inhibition of human BCRP assessed as reduction in E3S transport at 24000 uM relative to control
# T1 sequence (Q9UNQ0 whole entry): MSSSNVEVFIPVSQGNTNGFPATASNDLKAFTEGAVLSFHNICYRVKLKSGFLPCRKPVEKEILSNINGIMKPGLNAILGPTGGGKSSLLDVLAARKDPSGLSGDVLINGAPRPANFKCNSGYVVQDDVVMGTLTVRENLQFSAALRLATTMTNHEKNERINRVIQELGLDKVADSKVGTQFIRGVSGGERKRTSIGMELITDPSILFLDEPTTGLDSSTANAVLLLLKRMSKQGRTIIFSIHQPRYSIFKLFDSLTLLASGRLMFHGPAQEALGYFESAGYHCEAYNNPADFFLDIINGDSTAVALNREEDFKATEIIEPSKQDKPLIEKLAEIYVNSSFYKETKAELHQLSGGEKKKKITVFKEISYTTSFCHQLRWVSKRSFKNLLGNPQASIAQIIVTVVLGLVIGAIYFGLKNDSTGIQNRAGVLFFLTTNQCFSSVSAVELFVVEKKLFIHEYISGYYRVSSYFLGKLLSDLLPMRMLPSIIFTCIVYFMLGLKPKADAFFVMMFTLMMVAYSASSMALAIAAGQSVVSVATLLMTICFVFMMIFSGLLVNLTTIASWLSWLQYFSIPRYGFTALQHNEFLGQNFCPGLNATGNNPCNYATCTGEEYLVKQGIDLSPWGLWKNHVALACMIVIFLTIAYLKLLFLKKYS
# [25] = target: T2, Organic anion transporter 3 (Homo sapiens, UniProt Q8TCC7); test: Inhibition of human OAT3 assessed as reduction in OAT3-mediated tenofovir transport
# T2 sequence (Q8TCC7 whole entry): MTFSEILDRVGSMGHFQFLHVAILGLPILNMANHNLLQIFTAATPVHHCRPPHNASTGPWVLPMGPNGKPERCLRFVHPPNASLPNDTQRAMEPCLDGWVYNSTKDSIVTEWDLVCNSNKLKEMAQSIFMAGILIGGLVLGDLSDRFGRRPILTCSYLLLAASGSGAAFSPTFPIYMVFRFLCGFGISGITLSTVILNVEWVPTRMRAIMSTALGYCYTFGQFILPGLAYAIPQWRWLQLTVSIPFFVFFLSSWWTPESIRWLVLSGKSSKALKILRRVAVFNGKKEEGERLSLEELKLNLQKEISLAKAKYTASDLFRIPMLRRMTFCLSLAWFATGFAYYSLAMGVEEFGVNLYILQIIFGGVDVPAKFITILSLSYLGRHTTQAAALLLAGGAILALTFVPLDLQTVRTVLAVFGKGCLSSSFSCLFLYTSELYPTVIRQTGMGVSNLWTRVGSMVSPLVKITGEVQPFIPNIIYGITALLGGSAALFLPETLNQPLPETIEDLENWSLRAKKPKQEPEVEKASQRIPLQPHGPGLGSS
# [26] = target: Solute carrier family 22 member 1 (Homo sapiens) (UniProt O15245); test: Inhibition of human OCT1 assessed as reduction in OCT1-mediated metformin transport at 14900 uM relative to control
# Sequence of Solute carrier family 22 member 1 (Homo sapiens) (O15245 whole entry, looked up): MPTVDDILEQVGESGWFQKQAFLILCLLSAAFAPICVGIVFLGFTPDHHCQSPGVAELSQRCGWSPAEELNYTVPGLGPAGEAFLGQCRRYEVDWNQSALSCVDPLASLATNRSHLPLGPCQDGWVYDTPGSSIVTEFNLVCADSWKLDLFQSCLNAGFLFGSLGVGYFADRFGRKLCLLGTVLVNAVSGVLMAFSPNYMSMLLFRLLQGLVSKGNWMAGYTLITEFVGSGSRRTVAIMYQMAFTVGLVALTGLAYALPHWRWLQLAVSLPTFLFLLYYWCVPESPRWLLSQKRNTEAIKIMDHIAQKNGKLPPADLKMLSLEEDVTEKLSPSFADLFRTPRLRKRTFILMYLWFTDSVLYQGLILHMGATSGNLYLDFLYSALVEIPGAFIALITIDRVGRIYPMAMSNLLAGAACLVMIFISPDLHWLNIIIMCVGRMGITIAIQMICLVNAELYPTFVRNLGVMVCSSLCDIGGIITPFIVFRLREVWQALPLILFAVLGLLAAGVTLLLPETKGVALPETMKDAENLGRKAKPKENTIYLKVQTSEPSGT
smiles,measurement,setting,value
CCC(C)(C)C(=O)O [DIMEBUTIC ACID],Activity,[1],-65.9%
same,EC50,[2],1.1 µM
same,EC50,[3],0.8 µM
same,EC50,[4],2.3 µM
same,Activity,[5],13.5%
same,Activity,[6],-22.3%
same,EC50,[7],3.5 µM
same,EC50,[8],202 µM
same,EC50,[9],46.2 µM
same,pKa,[10],4.4
same,Kp,[11],0.649
same,Cmax,[12],465 µg/mL
same,Tmax,[13],7.5 min
same,Tmax,[14],30 min
same,Cmax,[15],113 µg/mL
same,Drug uptake,[16],Bld
same,Drug metabolism,[17],Metabolite_Detected
same,Drug metabolism,[18],Metabolite_Detected
same,Drug metabolism,[19],Metabolite_Detected
same,Drug metabolism,[20],Metabolite_Detected
same,Drug metabolism,[21],Metabolite_Notdetected
same,Drug metabolism,[22],Metabolite_Notdetected
same,inhibition (INH),[23],Not Active
same,inhibition (INH),[24],Not Active
same,IC50,[25],3510 µM
same,inhibition,[26],inactive
